Results taken from PMC8080777, “Discovery, optimization, and evaluation of non-bile acid FXR/TGR5 dual agonists” (Scientific Reports, 2021).
pEC50: −log10 of the molar value.

What was measured:
Pharmacokinetics in rats = type: in vivo, Sprague-Dawley rats; settings: for Cmax / half-life / CLtot: n=3; for AUC: n=3, AUC0-24h; for Plasma exposure (in words): oral dose of 3 mg/kg; for CLtot: p.o.
Protocol: S3. Supplementary Table S1. Pharmacokinetic properties of 20p and 20q after oral administration […]
Determination of Drug Pharmacokinetics in Sprague-Dawley rats.
Blood samples (about 200 µl) were obtained from the jugular vein at 0.083 (intravenous only), 0.25, 0.5, 1, 2, 4, 8, and 24 hours from 16-hour fasted rats. Plasma was obtained from the blood samples by centrifugation at 3000 rpm for 10 minutes at 4 °C. Plasma were deproteinated and centrifuged at 3000 rpm for 10 minutes at 4 °C. Drug concentrations were measured using LC - MSMS (Triple Quad 4500; […]). Area under the plasma concentration -time curve at 0–24h (AUC0–24h) were calculated using the trapezoidal rule. pharmacokinetic parameters were calculated using the Phoenix WinNonlin 6.4 software (Certara […]

CYP7A1 = assay: In vivo FXR assay: CYP7A1 in mice liver by real-time PCR; settings: CDAHFD-fed C57BL/6J mice, single oral dose 30 and 10 mg/kg, liver four hours after administration
Protocol: Test compounds were orally administered to 7-week old male C57BL/6J mice (Nippon Charles River Co., Ltd., Yokohama City, Kanagawa, Japan), that were administered CDAHFD (#A06071302, Research Diets, 20 Jules Lane, New Brunswick, NJ, USA) consisting 60 kcal% fat and 0.1% methionine by weight for 7 days. After four hours of administration, the liver was removed, and total RNA was extracted using a Pure Link RNA Mini Kit (Invitrogen, Thermo Fisher Scientific K. K., Minato-ku, Tokyo, Japan). The concentration of total RNA was measured using Micro Sample Spectrophotometer (SimpliNano, GE Healthcare UK Ltd, Amersham Place Little Chalfont Buckinghamshire, HP7 9NA UK), and cDNA was synthesized using ReverTra Ace qPCR RT Master Mix (Toyobo Co., Ltd., Osaka City, Osaka, Japan). Real-time PCR was performed using a CFX96 Touch Real-Time PCR Analysis System (CFX Manager, Bio-Rad, 1000 Alfred Nobel Drive, Hercules, CA, USA), and the mRNA expression levels of SHP and CYP7A1, the target genes of FXR, were measured using the intercalator method.
S4. In vitro, in vivo assay, and selectvity.
To directly evaluate the in vitro agonist activity towards FXR, test compounds were evaluated in CHO cells transfected with FXR responsive luciferase reporter (Nuclear Receptor & In Vitro Toxicology Solutions, Indigo Biosciences, State College, PA, USA). […]

TGR5 = biological target: T1, TGR5 (Homo sapiens, UniProt Q8TDU6); assay: TGR5 cAMP assay in CHO cells transfected with TGR5 (cAMP Hunter eXpress, Discover X); type: cell-based; settings: for TGR5 Efficacy (%) (1 µM) / TGR5 Efficacy (%) (10 µM): % vs INT-767 10 µM as 100%; for pEC50: 4 parameter logistic fit
T1 construct: host or cells: CHO cells
T1 sequence (Q8TDU6 1-330): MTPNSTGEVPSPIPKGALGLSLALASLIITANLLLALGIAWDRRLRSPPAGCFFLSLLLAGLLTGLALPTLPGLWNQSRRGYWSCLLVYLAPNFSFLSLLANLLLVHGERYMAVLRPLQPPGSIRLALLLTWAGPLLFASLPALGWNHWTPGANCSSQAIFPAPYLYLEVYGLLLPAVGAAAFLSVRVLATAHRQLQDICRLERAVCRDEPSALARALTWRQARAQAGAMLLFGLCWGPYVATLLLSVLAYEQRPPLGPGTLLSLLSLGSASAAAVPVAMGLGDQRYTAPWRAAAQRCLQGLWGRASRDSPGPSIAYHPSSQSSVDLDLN

[1] = Sprague-Dawley, rat, plasma, po, 3mg/kg
[2] = Sprague-Dawley, rat, plasma, iv, 3mg/kg

**Q.** Which Cmax (Pharmacokinetics in rats; [1]) does the source give for `COc1cc(Cl)cc(N(CC23CCC(c4ccc(OC)c(C#N)c4)(CC2)CC3)C(=O)c2ccncc2C)c1` [Compound 20p] here?
**A.** The Cmax was 50.3 ng/mL.

**Q.** And the half-life (Pharmacokinetics in rats; [1])?
**A.** Its half-life is 1.45 h.

**Q.** And the AUC (Pharmacokinetics in rats; [1])?
**A.** Its AUC is 121 ng·h/mL.

**Q.** What about the “Plasma exposure (in words)” value (Pharmacokinetics in rats) of the same compound?
**A.** Its value is “rather low plasma exposure”.

**Q.** And the CLtot (Pharmacokinetics in rats; 3mg/kg)?
**A.** The CLtot was 426.93 mL/min/kg.

**Q.** What about the “Repression of CYP7A1 in the liver” value (CYP7A1) of the same compound?
**A.** The value was “decreased CYP7A1 in the liver”.

**Q.** What about the “TGR5 agonist activity (in words)” value (TGR5) of the same compound?
**A.** The value was “strong dual agonist potencies”.

**Q.** And the “TGR5 Efficacy (%) (1 µM)” value (TGR5)?
**A.** The value was 51.1%.

**Q.** What about the “TGR5 Efficacy (%) (10 µM)” value (TGR5) of the same compound?
**A.** The value was 62.4%.

**Q.** And the pEC50 (TGR5)?
**A.** Its pEC50 is 6.38.

**Q.** What does the source list for `COc1ccc(C23CCC(CN(C(=O)c4ccncc4C)c4cc(Cl)cc(Cl)c4)(CC2)CC3)cc1C#N` [Compound 20q]?
**A.** Cmax (Pharmacokinetics in rats; [2]): 2580 ng/mL; half-life (Pharmacokinetics in rats; [2]): 5.04 h; AUC (Pharmacokinetics in rats; [2]): 1460 ng·h/mL; clearance (Pharmacokinetics in rats; Sprague-Dawley, rat, plasma, iv, 3mg/kg, n=3, read-out: CLtot (converted)): 34.2 mL/min/kg; Cmax (Pharmacokinetics in rats; [1]): 3.2 ng/mL; half-life (Pharmacokinetics in rats; [1]): 4.52 h; AUC (Pharmacokinetics in rats; [1]): 11 ng·h/mL; Plasma exposure (in words) (Pharmacokinetics in rats): rather low plasma exposure; CLtot (Pharmacokinetics in rats; 3mg/kg): 2652.33 mL/min/kg; Repression of CYP7A1 in the liver (CYP7A1): decreased CYP7A1 in the liver; TGR5 agonist activity (in words) (TGR5): strong dual agonist potencies; TGR5 Efficacy (%) (1 µM) (TGR5): 51.2%; TGR5 Efficacy (%) (10 µM) (TGR5): 80.2%; pEC50 (TGR5): 6.10
